From ChEMBL document CHEMBL5247644, “Design and Synthesis of Sulfonium Derivatives: A Novel Class of α-Glucosidase Inhibitors with Potent In Vivo Antihyperglycemic Activities” (J Med Chem, 2023)
Blank lines part the entries; values can stand above or below the compound they belong to. Calls of active or inactive are those of the source. The rule behind the calls is not given here.

Columns and labels:
[1] = target: T1, Sucrase-isomaltase, intestinal (Rattus norvegicus, UniProt P23739); assay: Inhibition of sucrase in rat small intestinal brush border membrane vesicles using sucrose as substrate incubated for 30 mins by glucose-oxidase method; assay type: cell membranes, Small intestine, Membrane vesicle
[2] = target: T1, Sucrase-isomaltase, intestinal; assay: Binding affinity to sucrase in rat small intestinal brush border membrane vesicles assessed as inhibition constant using sucrose as substrate incubated for 30 mins by glucose-oxidase method; assay type: cell membranes, Small intestine, Membrane vesicle
[3] = Inhibition of maltase in rat small intestinal brush border membrane vesicles using maltose as substrate incubated for 30 mins by glucose-oxidase method; assay type: cell membranes, Small intestine, Membrane vesicle
[4] = test system: Mus musculus; assay: Antihyperglycemic activity in overnight fasted ICR mouse assessed as decrease in blood glucose level at 20 mg/kg, IG administered via tube and measured after 30 mins by sucrose loading test relative to control; assay type: functional; parameters: scale not given: the % may be the effect or the level left; details: 0.5 h
[5] = test system: Mus musculus; assay: Antihyperglycemic activity in overnight fasted ICR mouse assessed as decrease in blood glucose level at 20 mg/kg, IG administered via tube and measured after 60 mins by sucrose loading test relative to control; assay type: functional; parameters: scale not given: the % may be the effect or the level left; details: 1 h
[6] = test system: Mus musculus; assay: Antihyperglycemic activity in overnight fasted ICR mouse assessed as decrease in blood glucose level at 20 mg/kg, IG administered via tube and measured after 15 mins by sucrose loading test relative to control; assay type: functional; parameters: scale not given: the % may be the effect or the level left; details: 0.25 h
[7] = test system: Mus musculus; assay: Antihyperglycemic activity in overnight fasted ICR mouse assessed as decrease in AUC of blood glucose level at 20 mg/kg, IG administered via tube and measured after 15 to 60 mins by sucrose loading test relative to control; assay type: functional; parameters: scale not given: the % may be the effect or the level left; details: time 15-60 min
[8] = target: Lysosomal alpha-glucosidase (Rattus norvegicus) (UniProt Q6P7A9); assay: Potency index, ratio of neoponkoranol IC50 to test compound IC50 for inhibition of maltase in rat small intestinal brush border membrane vesicles using maltose as substrate incubated for 30 mins by glucose-oxidase method; assay type: cell membranes; details: Small intestine, Membrane vesicle
[9] = test system: Rattus norvegicus; assay: Antihyperglycemic activity in fasted rat assessed as decrease in AUC of blood glucose level at 1 mg/kg measured for 15 to 60 mins by maltose loading test relative to control; assay type: functional; parameters: scale not given: the % may be the effect or the level left; details: time 15-60 min
[10] = test system: Mus musculus; assay: Antihyperglycemic activity in overnight fasted ICR mouse assessed as decrease in AUC of blood glucose level at 10 mg/kg, IG administered via tube and measured after 15 to 60 mins by sucrose loading test relative to control; assay type: functional; parameters: scale not given: the % may be the effect or the level left; details: time 15-60 min
[11] = test system: Mus musculus; assay: Antihyperglycemic activity in overnight fasted ICR mouse assessed as decrease in AUC of blood glucose level at 1 mg/kg, IG administered via tube and measured after 15 to 60 mins by sucrose loading test relative to control; assay type: functional; parameters: scale not given: the % may be the effect or the level left; details: time 15-60 min
[12] = test system: Rattus norvegicus; assay: Antihyperglycemic activity in fasted rat assessed as decrease in blood glucose level at 1 mg/kg measured after 60 mins by maltose loading test relative to control; assay type: functional; parameters: scale not given: the % may be the effect or the level left
[13] = test system: Rattus norvegicus; assay: Antihyperglycemic activity in fasted rat assessed as decrease in blood glucose level at 1 mg/kg measured after 30 mins by maltose loading test relative to control; assay type: functional; parameters: scale not given: the % may be the effect or the level left; details: 0.5 h
[14] = test system: Mus musculus; assay: Antihyperglycemic activity in overnight fasted ICR mouse assessed as decrease in blood glucose level at 1 mg/kg, IG administered via tube and measured after 15 mins by sucrose loading test relative to control; assay type: functional; parameters: scale not given: the % may be the effect or the level left; details: 0.25 h
[15] = target: Sucrase-isomaltase, intestinal (Rattus norvegicus) (UniProt P23739); assay: Competitive inhibition of sucrase in rat small intestinal brush border membrane vesicles using sucrose as substrate incubated for 30 mins by Lineweaver-Burk plot analysis; assay type: cell membranes; details: Small intestine, Membrane vesicle
[16] = target: Lysosomal alpha-glucosidase (Rattus norvegicus) (UniProt Q6P7A9); assay: Competitive inhibition of maltase in rat small intestinal brush border membrane vesicles using maltose as substrate incubated for 30 mins by Lineweaver-Burk plot analysis; assay type: cell membranes; details: Small intestine, Membrane vesicle
[17] = test system: Rattus norvegicus; assay: Antihyperglycemic activity in fasted rat assessed as decrease in blood glucose level at 1 mg/kg measured after 15 mins by maltose loading test relative to control; assay type: functional; parameters: scale not given: the % may be the effect or the level left; details: 0.25 h
[18] = test system: Mus musculus; assay: Antihyperglycemic activity in overnight fasted ICR mouse assessed as decrease in blood glucose level at 10 mg/kg, IG administered via tube and measured after 30 mins by sucrose loading test relative to control; assay type: functional; parameters: scale not given: the % may be the effect or the level left; details: 0.5 h
[19] = test system: Mus musculus; assay: Antihyperglycemic activity in overnight fasted ICR mouse assessed as decrease in blood glucose level at 1 mg/kg, IG administered via tube and measured after 30 mins by sucrose loading test relative to control; assay type: functional; parameters: scale not given: the % may be the effect or the level left; details: 0.5 h
[20] = test system: Mus musculus; assay: Antihyperglycemic activity in overnight fasted ICR mouse assessed as decrease in blood glucose level at 1 mg/kg, IG administered via tube and measured after 60 mins by sucrose loading test relative to control; assay type: functional; parameters: scale not given: the % may be the effect or the level left
[21] = test system: Mus musculus; assay: Antihyperglycemic activity in overnight fasted ICR mouse assessed as decrease in blood glucose level at 10 mg/kg, IG administered via tube and measured after 15 mins by sucrose loading test relative to control; assay type: functional; parameters: scale not given: the % may be the effect or the level left; details: 0.25 h
[22] = test system: Mus musculus; assay: Antihyperglycemic activity in overnight fasted ICR mouse assessed as decrease in blood glucose level at 10 mg/kg, IG administered via tube and measured after 60 mins by sucrose loading test relative to control; assay type: functional; parameters: scale not given: the % may be the effect or the level left; details: 1 h
[23] = target: Lysosomal alpha-glucosidase (Rattus norvegicus) (UniProt Q6P7A9); assay: Potency index, ratio of voglibose IC50 to test compound IC50 for inhibition of maltase in rat small intestinal brush border membrane vesicles using maltose as substrate incubated for 30 mins by glucose-oxidase method; assay type: cell membranes; details: Small intestine, Membrane vesicle
[24] = target: Sucrase-isomaltase, intestinal (Rattus norvegicus) (UniProt P23739); assay: Potency index, ratio of neoponkoranol IC50 to test compound IC50 for inhibition of sucrase in rat small intestinal brush border membrane vesicles using sucrose as substrate incubated for 30 mins by glucose-oxidase method; assay type: cell membranes; details: Small intestine, Membrane vesicle
[25] = target: Lysosomal alpha-glucosidase (Rattus norvegicus) (UniProt Q6P7A9); assay: Potency index, ratio of acarbose IC50 to test compound IC50 for inhibition of maltase in rat small intestinal brush border membrane vesicles using maltose as substrate incubated for 30 mins by glucose-oxidase method; assay type: cell membranes; details: Small intestine, Membrane vesicle

T1 sequence (P23739 1-1013 limits assumed): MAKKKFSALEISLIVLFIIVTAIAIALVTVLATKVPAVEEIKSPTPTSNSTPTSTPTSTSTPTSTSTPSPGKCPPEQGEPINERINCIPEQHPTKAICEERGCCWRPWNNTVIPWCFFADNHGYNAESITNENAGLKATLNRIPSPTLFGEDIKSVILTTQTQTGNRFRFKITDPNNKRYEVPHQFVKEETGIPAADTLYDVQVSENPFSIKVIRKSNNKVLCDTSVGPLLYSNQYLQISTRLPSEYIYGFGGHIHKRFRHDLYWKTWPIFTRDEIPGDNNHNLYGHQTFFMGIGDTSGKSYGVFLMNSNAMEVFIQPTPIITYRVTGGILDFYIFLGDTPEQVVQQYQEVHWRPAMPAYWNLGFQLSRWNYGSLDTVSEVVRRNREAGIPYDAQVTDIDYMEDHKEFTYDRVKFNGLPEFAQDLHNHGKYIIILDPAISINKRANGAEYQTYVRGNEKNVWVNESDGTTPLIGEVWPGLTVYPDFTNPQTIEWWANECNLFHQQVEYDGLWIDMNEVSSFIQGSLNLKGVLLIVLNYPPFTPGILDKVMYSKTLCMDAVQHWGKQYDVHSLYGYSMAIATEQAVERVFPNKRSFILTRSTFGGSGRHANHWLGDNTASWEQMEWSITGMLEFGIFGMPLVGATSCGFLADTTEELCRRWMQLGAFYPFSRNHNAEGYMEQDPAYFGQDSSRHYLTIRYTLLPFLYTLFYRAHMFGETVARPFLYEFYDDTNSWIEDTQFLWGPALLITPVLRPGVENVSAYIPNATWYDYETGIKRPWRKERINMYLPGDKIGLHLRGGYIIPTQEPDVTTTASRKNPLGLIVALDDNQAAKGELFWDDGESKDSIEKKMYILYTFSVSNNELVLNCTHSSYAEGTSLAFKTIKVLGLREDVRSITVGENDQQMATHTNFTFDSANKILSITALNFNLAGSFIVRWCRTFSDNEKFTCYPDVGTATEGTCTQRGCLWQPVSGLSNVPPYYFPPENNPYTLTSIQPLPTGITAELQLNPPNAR
T1 sequence (P23739 1014-1841 limits assumed): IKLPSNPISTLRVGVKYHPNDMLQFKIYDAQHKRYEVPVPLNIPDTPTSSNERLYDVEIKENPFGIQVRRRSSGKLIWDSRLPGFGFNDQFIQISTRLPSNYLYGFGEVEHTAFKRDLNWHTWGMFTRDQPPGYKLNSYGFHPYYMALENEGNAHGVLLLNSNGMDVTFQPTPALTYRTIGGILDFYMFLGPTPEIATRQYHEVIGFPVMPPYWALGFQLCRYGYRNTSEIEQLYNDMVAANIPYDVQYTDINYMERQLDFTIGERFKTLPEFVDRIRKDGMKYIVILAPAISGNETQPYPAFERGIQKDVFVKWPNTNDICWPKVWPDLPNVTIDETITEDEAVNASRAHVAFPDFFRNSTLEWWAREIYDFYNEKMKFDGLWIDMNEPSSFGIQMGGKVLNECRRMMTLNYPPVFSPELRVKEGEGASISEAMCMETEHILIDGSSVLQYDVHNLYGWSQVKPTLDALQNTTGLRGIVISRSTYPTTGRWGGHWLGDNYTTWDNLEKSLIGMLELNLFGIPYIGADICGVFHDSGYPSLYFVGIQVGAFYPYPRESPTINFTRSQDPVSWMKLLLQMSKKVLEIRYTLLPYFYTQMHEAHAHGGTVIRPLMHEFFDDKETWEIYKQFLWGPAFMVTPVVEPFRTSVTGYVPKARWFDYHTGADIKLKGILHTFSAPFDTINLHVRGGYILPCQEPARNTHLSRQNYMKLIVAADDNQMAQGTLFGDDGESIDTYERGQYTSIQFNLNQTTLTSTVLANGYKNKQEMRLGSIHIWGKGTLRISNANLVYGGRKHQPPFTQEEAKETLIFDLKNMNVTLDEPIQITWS
Sequence of Sucrase-isomaltase, intestinal (Rattus norvegicus) (P23739 1-1013 limits assumed): as the sequence (P23739 1-1013 limits assumed) above
Sequence of Sucrase-isomaltase, intestinal (Rattus norvegicus) (P23739 1014-1841 limits assumed): as the sequence (P23739 1014-1841 limits assumed) above
Sequence of Lysosomal alpha-glucosidase (Rattus norvegicus) (Q6P7A9 whole entry): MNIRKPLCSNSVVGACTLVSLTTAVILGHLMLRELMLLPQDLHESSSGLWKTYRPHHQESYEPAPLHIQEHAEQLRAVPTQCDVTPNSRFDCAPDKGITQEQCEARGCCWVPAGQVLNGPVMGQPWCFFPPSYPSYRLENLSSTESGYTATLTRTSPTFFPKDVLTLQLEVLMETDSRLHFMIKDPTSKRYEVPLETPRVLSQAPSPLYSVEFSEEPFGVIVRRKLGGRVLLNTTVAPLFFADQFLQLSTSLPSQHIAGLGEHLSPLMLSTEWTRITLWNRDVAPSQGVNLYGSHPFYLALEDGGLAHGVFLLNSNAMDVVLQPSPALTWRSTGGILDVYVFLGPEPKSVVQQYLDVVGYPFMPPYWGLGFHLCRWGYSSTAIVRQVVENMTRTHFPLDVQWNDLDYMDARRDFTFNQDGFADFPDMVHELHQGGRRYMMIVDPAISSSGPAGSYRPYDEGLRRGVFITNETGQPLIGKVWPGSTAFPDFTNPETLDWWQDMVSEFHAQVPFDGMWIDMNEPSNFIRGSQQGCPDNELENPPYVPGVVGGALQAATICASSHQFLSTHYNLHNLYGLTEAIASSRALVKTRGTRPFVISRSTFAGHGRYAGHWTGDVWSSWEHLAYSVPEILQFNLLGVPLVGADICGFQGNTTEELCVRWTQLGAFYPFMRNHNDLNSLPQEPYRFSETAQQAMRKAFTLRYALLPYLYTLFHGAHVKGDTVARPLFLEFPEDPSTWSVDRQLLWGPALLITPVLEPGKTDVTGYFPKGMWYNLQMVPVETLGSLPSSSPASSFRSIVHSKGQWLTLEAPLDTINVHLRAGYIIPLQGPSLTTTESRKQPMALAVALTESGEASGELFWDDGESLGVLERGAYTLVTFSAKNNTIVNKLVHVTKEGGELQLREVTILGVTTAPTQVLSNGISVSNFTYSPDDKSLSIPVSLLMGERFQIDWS

Structure (SMILES): C[C@H]1O[C@H](O[C@H]2[C@H](O)[C@@H](O)[C@@H](O[C@H]3[C@H](O)[C@@H](O)C(O)O[C@@H]3CO)O[C@@H]2CO)[C@H](O)[C@@H](O)[C@@H]1N[C@H]1C=C(CO)[C@@H](O)[C@H](O)[C@H]1O (stereo partly drawn) [ACARBOSE]
Activity [4]: 50.9%
Activity [5]: 45.1%
Activity [6]: 40.2%
Activity [7]: 40%

Structure (SMILES): OC[C@@H]1[C@@H](O)[C@H](O)C[S@@+]1C[C@@H](O)[C@H]1OC(c2ccccc2C(F)(F)F)OC[C@H]1O.[Cl-] (stereo partly drawn)
IC50 [1]: 220 nM
Ratio IC50 [8]: 40
Activity [9]: 39.7%
Ki [2]: 398 nM
Activity [10]: 45.8%
Activity [11]: 34%
Activity [12]: 43.2%
IC50 [3]: 230 nM
Activity [13]: 48.7%
Activity [14]: 35.1%
inhibition [15]: Active
inhibition [16]: Active
Activity [17]: 45.7%
Activity [18]: 56.6%
Activity [19]: 47.3%
Activity [20]: 37.8%
Activity [21]: 43.5%
Activity [22]: 51%

Structure (SMILES): OCC(CO)N[C@H]1C[C@](O)(CO)[C@@H](O)[C@H](O)[C@H]1O [VOGLIBOSE]
Activity [9]: 41.1%
Activity [12]: 43.3%
Activity [13]: 55.1%
Activity [17]: 50%

Structure (SMILES): OC[C@@H]1[C@@H](O)[C@H](O)C[S@@+]1C[C@@H](O)[C@H]1OC(c2cccc(C(F)(F)F)c2)OC[C@H]1O (stereo partly drawn)
IC50 [1]: 300 nM
IC50 [3]: 1500 nM

Structure (SMILES): OC[C@@H]1[C@@H](O)[C@H](O)C[S@@+]1C[C@@H](O)[C@H]1OC(c2ccccc2Cl)OC[C@H]1O (stereo partly drawn)
IC50 [1]: 540 nM
Ki [2]: 474 nM
IC50 [3]: 410 nM

Structure (SMILES): Cl.O=[N+]([O-])c1ccccc1C1OC[C@@H](O)[C@@H]([C@H](O)C[S@+]2C[C@@H](O)[C@H](O)[C@H]2CO)O1 (stereo partly drawn)
IC50 [1]: 100 nM
Ratio IC50 [8]: 40
Activity [9]: 45.6%
Ki [2]: 352 nM
Activity [10]: 50.1%
Activity [11]: 38.1%
Activity [12]: 48.3%
Ratio IC50 [23]: 7.5
IC50 [3]: 200 nM
Ratio IC50 [24]: 20
Activity [13]: 54.6%
Activity [14]: 41.1%
inhibition [15]: Active
inhibition [16]: Active
Activity [17]: 50%
Activity [18]: 60%
Activity [19]: 48%
Activity [20]: 43.9%
Ratio IC50 [25]: 16
Activity [21]: 49%
Activity [22]: 54.6%

Structure (SMILES): O=[N+]([O-])c1ccc(C2OC[C@@H](O)[C@@H]([C@H](O)C[S@+]3C[C@@H](O)[C@H](O)[C@H]3CO)O2)cc1 (stereo partly drawn)
IC50 [1]: 4700 nM
IC50 [3]: 4500 nM

Structure (SMILES): OC[C@@H]1[C@@H](O)[C@H](O)C[S@@+]1C[C@@H](O)[C@H]1OC(c2ccccc2)OC[C@H]1O (stereo partly drawn)
IC50 [1]: 420 nM
Ratio IC50 [8]: 10
Ki [2]: 758 nM
IC50 [3]: 830 nM
Ratio IC50 [24]: 5

More lines, in order of falling IC50 [1], values ahead:

IC50 [1]: 3400 nM
IC50 [3]: 6700 nM
Structure (SMILES): O=[N+]([O-])c1cccc(C2OC[C@@H](O)[C@@H]([C@H](O)C[S@+]3C[C@@H](O)[C@H](O)[C@H]3CO)O2)c1 (stereo partly drawn)

IC50 [1]: 2500 nM
IC50 [3]: 3000 nM
Structure (SMILES): OC[C@@H]1[C@@H](O)[C@H](O)C[S@@+]1C[C@@H](O)[C@H]1OC(c2ccc(F)cc2)OC[C@H]1O (stereo partly drawn)

IC50 [1]: 2300 nM
IC50 [3]: 4000 nM
Structure (SMILES): OC[C@@H]1[C@@H](O)[C@H](O)C[S@@+]1C[C@@H](O)[C@H]1OC(c2ccc(Cl)cc2)OC[C@H]1O (stereo partly drawn)

IC50 [1]: 2300 nM
IC50 [3]: 3500 nM
Structure (SMILES): OC[C@@H]1[C@@H](O)[C@H](O)C[S@@+]1C[C@@H](O)[C@H]1OC(c2ccc(C(F)(F)F)cc2)OC[C@H]1O (stereo partly drawn)

IC50 [1]: 1900 nM
IC50 [3]: 3100 nM
Structure (SMILES): OC[C@@H]1[C@@H](O)[C@H](O)C[S@@+]1C[C@@H](O)[C@H]1OC(c2cccc(Cl)c2)OC[C@H]1O (stereo partly drawn)

IC50 [1]: 1900 nM
IC50 [3]: 7800 nM
Structure (SMILES): OC[C@@H]1[C@@H](O)[C@H](O)C[S@@+]1C[C@@H](O)[C@@H](O)[C@@H](O)[C@@H](O)CO
Activity [9]: 23%
Activity [10]: 40%
Activity [11]: 29.6%
Activity [12]: 19.8%
Activity [13]: 34.5%
Activity [14]: 27.8%
Activity [17]: 35.3%
Activity [18]: 48.3%
Activity [19]: 39.6%
Activity [20]: 35.3%
Activity [21]: 37.5%
Activity [22]: 45.1%

IC50 [1]: 700 nM
IC50 [3]: 1700 nM
Structure (SMILES): OC[C@@H]1[C@@H](O)[C@H](O)C[S@@+]1C[C@@H](O)[C@H]1OC(c2cccc(F)c2)OC[C@H]1O (stereo partly drawn)

IC50 [1]: 400 nM
Ki [2]: 562 nM
IC50 [3]: 840 nM
Structure (SMILES): OC[C@@H]1[C@@H](O)[C@H](O)C[S@@+]1C[C@@H](O)[C@H]1OC(c2ccccc2F)OC[C@H]1O (stereo partly drawn)
